Columns and labels:
[1] = LNP particle size, polydispersity index and charge by Zeta Sizer; type: physicochemical; conditions: LNP lipid:DOPE:Cholesterol:DMG-PEG 35:20:43.5:1.5, firefly luciferase saRNA; for Polydispersity Index (PI) / Z-average (nm): N/P approx. 40/1
[2] = saRNA loading / encapsulation efficiency, Quant-IT RiboGreen assay; type: physicochemical; conditions: LNP lipid:DOPE:Cholesterol:DMG-PEG 35:20:43.5:1.5, firefly luciferase saRNA
[3] = system: expression of the luciferase saRNA; experiment: In vivo bioluminescent imaging after intramuscular injection of LNP-formulated luciferase saRNA; conditions: 1 μg LNP-formulated luciferase saRNA intramuscularly, female SWISS mice
[4] = Weight evolution of the animals following administration of LNPs; type: in vivo; conditions: female SWISS mice
[5] = Day 1, 1 μg LNP-formulated saRNA intramuscularly
[6] = Day 3, 1 μg LNP-formulated saRNA intramuscularly
[7] = Day 5, 1 μg LNP-formulated saRNA intramuscularly
[8] = Day 7, 1 μg LNP-formulated saRNA intramuscularly
[9] = Day 10, 1 μg LNP-formulated saRNA intramuscularly
[10] = Day 15, 1 μg LNP-formulated saRNA intramuscularly
[11] = Day 20, 1 μg LNP-formulated saRNA intramuscularly

SMILES | Zetapotential (mV) [1] [mV] | Polydispersity Index (PI) [1] | Z-average (nm) [1] [nm] | Encapsulation (%) [2] [%] | Bioluminescence expression of LNPs ([3]; Day 1) | Bioluminescence expression of LNPs ([3]; Day 3) | Bioluminescence expression of LNPs ([3]; Day 5) | Bioluminescence expression of LNPs ([3]; Day 7) | Bioluminescence expression of LNPs ([3]; Day 10) | Bioluminescence expression of LNPs ([3]; Day 15) | Bioluminescence expression of LNPs ([3]; Day 20) | Weight ([4]; Day 0) [g] | Weight [4, 5] [g] | Weight [4, 6] [g] | Weight [4, 7] [g] | Weight [4, 8] [g] | Weight [4, 9] [g] | Weight [4, 10] [g] | Weight [4, 11] [g]
CCCCCCCCC(CCCCCC)C(=O)OCCCCN(CCCCOC(=O)C(CCCCCC)CCCCCCCC)CCN1CCN(CCN(CCCCOC(=O)C(CCCCCC)CCCCCCCC)CCCCOC(=O)C(CCCCCC)CCCCCCCC)CC1 (stereo not shown) [Compound 9-36, ((piperazine-1,4-diylbis(ethane-2,1-diyl))bis(azanetriyl))tetrakis(butane-4,1-diyl) tetrakis(2-hexyldecanoate)] | −10.52 | 0.20 | 105.70 | 96.25 | 4.28E+06 | 1.92E+08 | 8.44E+08 | 6.10E+08 | 5.56E+06 | 2.57E+05 | 1.16E+05 | 29.09 | 29.49 | 31.49 | 30.09 | 30.36 | 30.56 | 31.33 | 32.30
CCCCCCC(CCCC)C(=O)OCCCCN(CCCCOC(=O)C(CCCC)CCCCCC)CCN1CCN(CCN(CCCCOC(=O)C(CCCC)CCCCCC)CCCCOC(=O)C(CCCC)CCCCCC)CC1 (stereo not shown) [Compound 9-33, ((piperazine-1,4-diylbis(ethane-2,1-diyl))bis(azanetriyl))tetrakis(butane-4,1-diyl) tetrakis(2-butyloctanoate)] | −13.70 | 0.22 | 86.24 | 92.26 | 3.79E+07 | 6.90E+08 | 1.45E+09 | 1.02E+09 | 5.76E+06 | 5.96E+05 | 1.21E+05 | 26.83 | 25.36 | 27.37 | 26.96 | 27.29 | 27.20 | 28.79 | 29.60
CCCCCCCCC(CCCCCC)C(=O)OCCCCN(CCCCOC(=O)C(CCCCCC)CCCCCCCC)CCN(CCCCOC(=O)C(CCCCCC)CCCCCCCC)CCN1CCN(CCN(CCCCOC(=O)C(CCCCCC)CCCCCCCC)CCCCOC(=O)C(CCCCCC)CCCCCCCC)CC1 (stereo not shown) [Compound 9-30, ((2-(4-(2-((2-(bis(4-((2-hexyldecanoyl)oxy)butyl)amino)ethyl) (4-((2-hexyldecanoyl)oxy)butyl)amino)ethyl)piperazin-1-yl)ethyl)azanediyl) bis(butane-4,1-diyl)bis(2-hexyldecanoate)] | −8.56 | 0.17 | 115.36 | 94.22 | 2.31E+06 | 2.87E+07 | 6.18E+07 | 9.09E+07 | 2.84E+07 | 1.67E+05 | 1.67E+05 | 29.39 | 28.23 | 29.73 | 29.77 | 30.46 | 31.20 | 30.96 | 32.00
CCCCCCC(CCCC)C(=O)OCCCCN(CCCCOC(=O)C(CCCC)CCCCCC)CCN(CCCCOC(=O)C(CCCC)CCCCCC)CCN1CCN(CCN(CCCCOC(=O)C(CCCC)CCCCCC)CCCCOC(=O)C(CCCC)CCCCCC)CC1 (stereo not shown) [Compound 9-27, ((2-(4-(2-((2-(bis(4-((2-butyloctanoyl)oxy)butyl)amino)ethyl) (4-((2-butyloctanoyl)oxy)butyl)amino)ethyl)piperazin-1-yl)ethyl)azanediyl) bis(butane-4,1-diyl)bis(2-butyloctanoate)] | −10.65 | 0.18 | 65.27 | 93.93 | 4.09E+07 | 1.51E+09 | 1.35E+09 | 9.33E+08 | 2.88E+06 | 2.77E+05 | 1.87E+05 | 27.51 | 26.21 | 28.67 | 28.56 | 29.01 | 29.61 | 30.77 | 31.87

From patent US20250236599A1, “LIPID NANOPARTICLES FOR OLIGONUCLEOTIDE DELIVERY” (ZIPHIUS NV, priority 2021, published 2025)
